row,Compound,melting point
1,c1cn(CCCOc2ccc(-c3noc(C4CC4)n3)cc2)cn1,98 to 100 °C
2,CC(C)(C)CC(=O)NC(Cc1ccc(OCc2ccccc2)cc1)C(=O)Nc1c(F)cc(F)cc1F (stereo unspecified),150 to 157 °C
3,O=C(N[C@@H](Cc1ccccc1)C(=O)Oc1cc(Cl)c(Cl)cc1Cl)OCc1ccccc1,139 to 140 °C
4,CC(C)=CCC1(C(F)(F)F)C(=O)NC(=O)NC1=O,150 to 153 °C
5,CCS(=O)(=O)c1cnc(Cl)c(Cl)c1,141 to 142 °C
6,O=c1oc(-c2ccccc2)cc(O)c1S(=O)(=O)Cc1ccccc1,152 to 153 °C
7,COC(=O)c1ccccc1S(=O)(=O)NC(=O)c1cnc2c(C)cc(C)nn12,210 to 212 °C
8,CC(=O)Oc1ccc2c(c1)OC(c1ccccc1)(c1ccccc1)O2,81.5 to 82.5 °C
9,CCOC(=O)c1cc2cc(NC(C)=O)ccc2[nH]1,202 to 203 °C
10,CC(C)(C)OC(=O)N[C@H]1CC[C@H](CCN2CCCC2)CC1,110 °C
11,COc1cccc(C(CCCCCCc2ccccc2)CNC(=O)Cc2c(Cl)cncc2Cl)c1 (stereo unspecified),97 to 98 °C
12,Cn1nnnc1CC(O)(c1ccccc1)c1ccccc1,175 to 176 °C
13,CSc1ccccc1C1CCN(CCCCNC(=O)c2ccc(-c3ccc(C(F)(F)F)cc3)cc2)CC1,191 to 192 °C
14,O=C1C(=O)N(c2ccc(F)cc2)c2ccc(F)cc21,180 to 190 °C
15,Cc1ccc(C2c3c(C)c(N4CCN(c5ccc(F)cc5)CC4)c(C)c(C)c3OC2(C)C)cc1 (stereo unspecified),159 to 162 °C
16,O=C(/C=C/c1cccc(Br)c1)NC1CC1,110 to 111 °C
17,CC(=O)c1cc([N+](=O)[O-])ccc1NC(=O)CCl,162 °C
18,O=C(O)CCCc1oc(-n2cnc3ccccc32)nc1-c1ccc(Cl)cc1,199 to 200 °C
19,Cc1cc(C(=S)NCc2ccc(Br)cc2F)c(OCC(=O)O)cc1F,162 to 164 °C
20,CCCCc1nn2c(c1Cc1ccc(-c3ccccc3)c(C(=O)O)c1)CCCC2,162 °C
21,Cc1ccc(S(=O)(=O)Nc2ccc([C@@H](C)C(N)=O)cc2)cc1,138 to 140 °C
22,Clc1ccccc1-c1cnc(-c2ccccc2Cl)nc1,112 °C
23,NNC(=O)c1nn(Cc2ccc(Cl)cc2Cl)c2ccccc12,161 to 162 °C
24,COc1cccc(NC(=O)NC(C(C)C)C2CCN(Cc3ccc(Cl)c(Cl)c3)CC2)c1 (racemic),161 to 162 °C
25,CCOC(C)O[C@H]1C(=O)N(C(=S)Nc2ccccc2)[C@H]1c1ccccc1 (stereo partly specified),108 to 112 °C
26,CC1(C)CCc2c(N3CCSCC3)nc3sc4c(NCc5ccccn5)ncnc4c3c2C1,225 to 226 °C

row,Compound,melting point
1,CC1CC(=O)NN=C1c1ccc2c(c1)Oc1c[nH]nc1N2 (stereo unspecified),304 to 306 °C
2,Cc1cc(Cl)c(C(=O)c2ccccc2)c(Cl)c1,75.5 to 76.5 °C
3,N#Cc1c(N)n[nH]c1-c1ccc(Oc2ccccc2)cc1,187 to 188 °C
4,CS(=O)(=O)NCCc1ccncc1,114 to 116 °C
5,O=C(OCc1ccccc1)C1(Nc2ccccc2)CCN(CCc2ccccc2)CC1,76.7 °C
6,c1ccc2ncc(N3CCNCC3)cc2c1,87.7 to 88.5 °C
7,COc1ccc(C(=O)Nc2ccc3ccc(Oc4ccc(F)cc4)nc3n2)cc1,100 °C
8,Cn1c(=O)nc(NCCCN2CCN(C(c3ccccc3)c3ccccc3)CC2)c2ccccc21,121 to 124 °C
9,CCNC(C)CN1CCc2c(c(=O)oc3ccccc23)C1 (stereo unspecified),104 to 105 °C
10,CN(Cc1cc(C(F)(F)F)cc(C(F)(F)F)c1)C(=O)c1c(-c2ccccc2C(F)(F)F)c2ccccc2c(=O)n1C,159 to 160 °C
11,Cc1nc2ccccc2n1-c1ccc(C#N)cc1,166 to 168 °C
12,CC(C)S(=O)(=O)NC(=O)Nc1ccc(Cl)c(Cl)c1,151 to 154 °C
13,CCOC(=O)C1=C(C)NC(N)=C(C(=O)OCC)C1c1cccc2ccccc12 (stereo unspecified),174 °C
14,CC(C)(NC=O)c1cc(Cl)cc(Cl)c1,115 to 117 °C
15,CC(C)c1cc(OS(C)(=O)=O)cc(C(C)C)c1NC(=O)CN1CCN(CCSc2nc3ccccc3o2)CC1,115 to 117 °C
16,COCC(=O)N(c1c(C)ccc2ccccc12)C(CCO)C(=O)OC (stereo unspecified),132 to 137 °C
17,COCc1nc(C(C)(C)O)c(C(=O)O)n1Cc1ccc(-c2ccccc2C(=O)O)cc1,164 to 165 °C
18,O=C1NCCN(C(=O)OCc2ccccc2)C1Cc1ccccc1 (stereo unspecified),125 to 128 °C
19,NC(=O)Cc1cc(Oc2ccc3c(ccn3C(=O)Nc3ccc(CN4CCCC4)c(C(F)(F)F)c3)c2)ncn1,123 to 124 °C
20,N#Cc1cnc2c(sc3ccc([N+](=O)[O-])cc32)c1O,> 305 °C
21,OCc1ncn(CCCc2ccc(OCc3coc(/C=C/c4ccccc4)n3)cc2)c1CO,146 to 148 °C
22,COC(=O)C(O)C(CC(C)C)NC(=O)C(Cc1c[nH]cn1)NC(=O)C(CC(=O)NCCc1ccccc1)Cc1cccc2ccccc12 (mixture of isomers),82 to 87 °C
23,CC(C)(C)c1cc(C(=O)N2CCN(c3ccc([N+](=O)[O-])cc3)CC2)cc(C(C)(C)C)c1O,160 °C
24,CCc1cc(C(=O)c2ccccc2Cl)c(-n2cnnc2CNC(=O)c2ccc(Cl)c(Cl)c2)s1,158 to 160 °C
25,Cc1ccc(S(=O)(=O)OCCOc2ccc(N)c(CS(=O)(=O)c3ccccc3)c2)cc1,144 to 146 °C
26,CCC(C)c1cc(Cc2cc(C(C)CC)c(N)c(C)c2Cl)c(Cl)c(C)c1N (stereo unspecified),94 to 102 °C

row,Compound,melting point
1,BrC/C(=C(\CBr)c1ccccc1)c1ccccc1,98 °C
2,COc1ccc2cnc(Nc3ccc(N4CCCCC4)c(F)c3)nc2c1C1CCCC1,200 to 201 °C
3,CCCN1CCc2c(cccc2NC(C)=O)C1,123 °C
4,COC(=O)c1ccc(CNS(C)(=O)=O)cc1N,120 to 121 °C
5,CCc1cncnc1O,95 to 97 °C
6,C[C@@H](NC(=O)c1c[nH]c2ncc(-c3nn(C)c4cc(Cl)ccc34)nc12)C(=O)N1CC[C@H](F)C1,269 to 271 °C
7,O=C(c1ccc(CNc2nc(-c3ccccc3)nc3ccccc23)cc1)N1CCN(c2ncc(Cc3ccccc3)cn2)CC1,216 to 217 °C
8,COc1ccc(C(=O)OCCOC(=O)NC2(C(=O)O)CC2)cc1OC,172 to 174 °C
9,CCN(CC)c1nc(N)c2ccccc2n1,125 to 128 °C
10,CCN(CC)CCNC(=O)c1cc(Cl)c(N)cc1OCCCN,119 to 121 °C
11,COc1c(-c2cc3c(s2)CCCC3O)ccc2c(=O)c(C(=O)O)cn(C3CC3)c12 (stereo unspecified),237 to 239 °C
12,CN(CCCc1nc2ccccc2[nH]1)C(=O)OCc1ccccc1,83 to 86 °C
13,CCOC(=O)c1oc2ccc(CSC)c(O)c2c1C,101 °C
14,N#CSc1cc(Cl)c(Cl)c2sc(NC(=O)Nc3ccc(Br)cc3)nc12,243 to 245 °C
15,CC(C)(C)OC(=O)c1ccc(NC2CCc3cc4nc(CO)[nH]c(=O)c4cc32)cc1 (racemic),265 to 266 °C
16,CCc1c(Sc2cc(C)cc(C)c2)n(CC2=CCCC2CO)c(=O)[nH]c1=O (stereo unspecified),59 to 60 °C
17,NCC(O)COCCCCCCCCc1ccccc1 (stereo unspecified),50 to 54 °C
18,COc1cc(Nc2c(C#N)cnc3cc(-c4cccc(NC(C)=O)c4)ccc23)c(Cl)cc1Cl,262 to 263 °C
19,CC12CC(O)C3=C4CCC(=O)C=C4CCC3C1C(O)CC2=O (stereo unspecified),146 °C
20,CCOC(=O)c1csc(/C=C/c2cccc(NC(=O)Cc3ccccc3C(=O)O)c2)n1,221 to 223 °C
21,COP(=S)(OC)SCc1cc(=O)[nH]c(C(C)C)n1,89 to 93 °C
22,CCc1oc2ccc(C)cc2c1C(=O)c1ccc(Cl)c(S(N)(=O)=O)c1,147 to 150 °C
23,CC(=O)NC[C@H]1CN(c2ccc(N3CCC(Cc4nnc(N)s4)CC3)c(F)c2)C(=O)O1,206 to 207 °C
24,O=C(O)Cc1cccc2c(-c3ccc(Cl)cc3)nccc12,234 to 236 °C
25,O=S(=O)(Cl)c1ccc2scnc2c1,110 to 112 °C
26,COC(=O)[C@@H]1CSC(=S)N1CC(C)(C)S,126 to 127 °C

row,Compound,melting point
1,CC1CC=C(c2nnn[nH]2)CN1CC(=O)O (stereo unspecified),136 to 138 °C
2,NC1=C(N=O)C(=O)N2CCN=C2N1Cc1ccc(F)cc1,248 to 250 °C
3,O=C(NCCc1ccccc1CCl)c1ccc([N+](=O)[O-])cc1,126 °C
4,CSCCNC(=O)c1cccc(-c2ccc3c(c2)C(Oc2ccc(Cl)cc2Cl)CC3)c1 (stereo unspecified),141 to 142 °C
5,COCCOCC(=O)C1CCC2C3CCC4CC(O)CCC4(C)C3C(=O)CC12C (stereo unspecified),115 to 121 °C
6,Cn1c(CCCO)nc2cccnc21,> 300 °C
7,O=C(O)c1cccc2nnsc12,239 to 240 °C
8,CCOC(=O)NNC(=O)Cc1noc(C)n1,122 to 124 °C
9,O=C(O)Cc1ccc(CCNS(=O)(=O)c2ccc(Cl)cc2)s1,138 °C
10,CN(C)C=Nc1c(F)ccc(F)c1C#N,56 to 60 °C
11,N=C(N)c1ccc(-n2cnn(-c3ccc(CCC(=O)O)cc3)c2=O)cc1,313 to 316 °C
12,C=CCCCCS(=O)(=O)C[C@@H](C)C(=O)O,51 to 54 °C
13,CC(=O)N[C@@H](CSC(=O)c1ccccc1)C(=O)NCCSC(=O)c1ccccc1,188 to 190 °C
14,CC(C)(C(=O)OCC(=O)c1ccccc1)n1c(=O)[nH]c2cc(Cl)ccc2c1=O,203 to 204 °C
15,CC(C)Cn1nc(C(=O)c2cccc(O)c2)c2ccccc21,108 to 110 °C
16,COc1cccc([Si](C)(C)COc2cc(C(C)(C)C)c(O)c(C(C)(C)C)c2)c1OC,94.5 to 96 °C
17,Cc1cccc(NC(=O)NCC(=O)N(CC(=O)OC(C)(C)C)c2ccc([N+](=O)[O-])cc2)c1,152 °C
18,Cc1sc2c(c1C)C(c1ccc(Cl)cc1)=NC(N)c1nnc(C)n1-2 (stereo unspecified),192 to 197 °C
19,CN1CCN(C(=O)C(=O)Nc2cc(C#N)ccc2O)CC1,256 °C
20,Cc1ccc(C(=O)Nc2ccc(CN(C)C)c(C(F)(F)F)c2)cc1Br,156 to 157 °C
21,COC(=O)c1[nH]cc(C(=O)NCc2ccc(F)cc2)c(=O)c1OC,242 to 244 °C
22,O=C(O)c1cc(-c2ccccc2)c2sccc2c1,234 °C
23,CS(=O)(=O)Oc1ccc2cc(CO)ccc2c1,96 to 98 °C

# Source: a melting point compilation (Tetko et al.; mined from patent text by program, amines drawn as free bases though some values may be those of a salt)
